{
  "source": "patent US5594032A",
  "about": "“Amelioration of human erectile dysfunction by treatment with iNOS, inducers of iNOS or iNOS cDNA” (priority 1994, dated 1997)",
  "key": {"[1]": {"tested_on": "rat penis smooth muscle cells (RPSMC)", "assay": "Nitrite accumulation in medium of rat penis smooth muscle cell cultures (Greiss reagent)", "assay_type": "cell-based", "procedure": "Primary cultures of RPSMC were initiated from small pieces of penile tissue excised from 3 months old Sprague Dawley rats, utilizing Dulbecco's modified Eagle medium (DMEM) with 20% fetal calf serum, at 37° C. in the presence of 5% CO2. Cells grown from the explants were then transferred to medium with 10% serum, and at the 4th to 10th passage (1:3 splits) they were utilized for the experiments, unless otherwise indicated. Alternatively, cells from the 4-8th passage stored under liquid nitrogen were used to reinitiate the cultures, and used for incubations on the following 2-4 passages. These cultures are considered to consist mainly of smooth muscle cells from the penis based on morphological and cytoimmunochemical criteria.\nAll experiments were conducted at 90-100% cell confluence on \"Primaria\" cultureware, usually 24-well plates, adding or not the inducers indicated in each experiment. When not specifically stated, the standard binary induction mix consisted of bacterial lipopolysaccharide (LPS) (10 ug/ml) and recombinant murine […] (INF-θ) (250 U/ml). Other substances to be tested were added as indicated to the serum-containing medium, and the incubation proceeded for the times indicated. The medium was always collected and stored for an indirect measurement of NO production based on the determination of its conversion into nitrites. The procedure was based on the application of the Greiss reagent, using 250 ul of the medium mixed with an equal volume of reagent. Each experimental condition was carried out in triplicate."}, "cNOS, iNOS": {"tested_on": "cNOS, iNOS", "details": "cited from earlier work"}, "penile NOS": {"tested_on": "penile NOS", "assay": "NOS activity in penile cytosol, (3-H) L-arginine to (3-H) citrulline conversion", "assay_type": "biochemical, rat", "details": "cytosol of inducer-treated rats", "procedure": "Six adult rats were implanted with 100 ul pumps for 3 days, and then the pumps were replaced by similar ones with fresh solution as indicated in Example 2. Three animals had the pumps containing the inducer mix and three had saline as a control. At the end of the experiment the animals were anesthetized as indicated above and the penis (including the bulb), liver, and in some animals the cerebellum were surgically removed. The penile head and skin were excised and the organs were stored under liquid nitrogen.\nNOS activity was determined from tissue homogenates from two treated and two control rats, not subjected to EFS in order to avoid the interference with residual L-NAME from the in vivo experiments and EFS-induced changes in NOS activity. […] After eliminating the residual (3-H)L-arginine through the resin, (3-H) citrulline was counted in the trichloroacetic acid ether-extracted supernatant. All values were corrected by the radioactivity eluted in time zero incubations."}, "Male Fischer 344 rats": {"tested_on": "Male Fischer 344 rats", "assay": "Erectile response (maximal intracavernosal pressure) to electrical field stimulation of the cavernosal nerve", "assay_type": "in vivo, rat", "details": "for inhibition of the erectile response: sub-optimal dose", "procedure": "Male Fischer 344 rats from three age groups designated \"adult\" (5-month old), \"old\" (20 month old), and \"very old\" (28-32 month old) rats, were anesthetized with an intraperitoneal injection of sodium […] (pentobarbital) at 50 mg/kg. The definition of these age groups in terms of relative aging corresponds to conventional designations for the Fisher 344 strain of rats (maximal life span approximately 34-36 months; optimum breeding activity 2.5-8 months). The adult and very old rats were retired breeders whenever possible. Animals were maintained under controlled lighting and were treated according to NIH regulations. The number of animals in each group for each individual experiment is indicated in the corresponding figure.\nA transversal suprapubic skin incision (5 mmm) was done to expose the penis angle and its proximal portion. The right corpora cavernosa was then cannulated with a 27-gauge needle attached to a vinyl tubing (Bolab/bb317-85 Arizona) which was connected with an ALZET^R osmotic pump (Alza Corporation, Palo Alto, Calif.). Each pump (100 or 200 ul reservoir volume, as indicated) contained a mix of E. coli lipopolysaccharide (LPS) at 1 ug/ml, recombinant rat […] (IFN-γ) at 2,500 U/ml, recombinant human tumor necrosis factor-(TNF-α) at 2,500 U/ml, and recombinant human interleukin-1β (IL-1β) at 50 ng/ml.\nThe needle and the tubing were fixed to the penis peripheral tissues by Mersilene* 6-0 suture and the osmotic pump was placed subcutaneously on the rat abdomen. […] The incision was closed by layer using Dexon* Plus 4-0 suture and the success of the operation was checked all throughout the experiment by observation of a normal recovery and urinary activity. These criteria were completed by verifying the absence of peripheral hematomas or inflammation when the pump was removed. Each pump delivered the inducer mix by osmotic pressure through the catheter directly into the corpora cavernosa, either at 1 ul/hr during 3 days (pump 1003D) or at 0.5 ul/hr during 14 days (pump 2002).\nAt the completion of each treatment rats were anesthetized as in Example 1 and the erectile response was measured by a modification of a published procedure. Briefly, the cavernosal nerve was surgically exposed and stimulated with a square pulse stimulator connected to a platinum bipolar electrode positioned on the nerve. Through a needle inserted into the cavernosa, the intracavernosal pressure was recorded with a pressure transducer connected to a recorder that was calibrated with a manometer in order to express the response in mm of mercury. The animals were reinjected every 45 min with 35 mg/kg of ketamine for the whole duration of the experiment (about 2-3 hours).\nEach rat was submitted to the following sequential treatments done in duplicate: a) electrical field stimulation (EFS) at a frequency of 15 Hz for pulses of 30 sec, separated for 5 min intervals, for the voltage response curve, at […], 2.5, 5 and 10 volts, in this order; b) EFS at 10 volts with the nitric oxide synthase (NOS) inhibitor N -nitro-L-arginine methy ester (L-NAME) at 2 mg/kg, at a single dose per animal, recording 30 min. after injection. In some animals, the systemic blood pressure was measured at the beginning of the experiment, by intrafemoral cannulation and recording as above. Means and standard deviations were determined for the intracavernosal pressure values, and the statistical significance was obtained by the paired Student's t test."}, "[2]": {"details": "supplemented with 1 or 10 ug/ml LPS, 48 hr incubation"}},
  "data": [
    {"molecule": "TNF-α", "values": [
      {"measurement": "effect on nitrite production", "setting": "[1]; up to 500 u/ml, presence or absence of LPS, 48 hr", "value": "did not have any effect"}
    ]},
    {"molecule": "N=C(NCCC[C@H](N)C(=O)O)N[N+](=O)[O-]", "note": "[L-nitroarginine]", "values": [
      {"measurement": "potency as inhibitor of cNOS relative to iNOS", "setting": "cNOS, iNOS", "value": 1000, "unit": "fold"}
    ]},
    {"molecule": "N=C(N)NN", "note": "[aminoguanidine]", "values": [
      {"measurement": "effect on NOS activity in penile cytosol", "setting": "penile NOS; 0.3 mM", "value": "not affected"},
      {"measurement": "isoform preference of NOS inhibition", "setting": "cNOS, iNOS; specificity varies with the cell type", "value": "preferential inhibitor for iNOS"}
    ]},
    {"molecule": "COC(=O)[C@@H](N)CCCNC(=N)N[N+](=O)[O-]", "note": "[L-NAME, N-nitro-L-arginine methyl ester]", "values": [
      {"measurement": "inhibition of NOS activity in penile cytosol", "setting": "penile NOS; 2 mM", "value": "60-70%"},
      {"measurement": "fraction of maximal intracavernosal pressure remaining after L-NAME", "setting": "Male Fischer 344 rats; adult rats treated with inducers, L-NAME 2 mg/kg, EFS 10 volts", "value": 39, "unit": "%"},
      {"measurement": "fraction of maximal intracavernosal pressure remaining after L-NAME", "setting": "Male Fischer 344 rats; adult rats without inducer treatment (separate study)", "value": 62, "unit": "%"},
      {"measurement": "fraction of maximal intracavernosal pressure remaining after L-NAME", "setting": "Male Fischer 344 rats; old rats treated with inducers, L-NAME 2 mg/kg, EFS 10 volts", "value": 18, "unit": "%"},
      {"measurement": "fraction of maximal intracavernosal pressure remaining after L-NAME", "setting": "Male Fischer 344 rats; old rats without inducer treatment (separate study)", "value": 30, "unit": "%"},
      {"measurement": "inhibition of the erectile response", "setting": "Male Fischer 344 rats; non-respondent rats after 14 days inducer treatment", "value": "normal"},
      {"measurement": "inhibition of the erectile response", "setting": "Male Fischer 344 rats; respondent animals after 14 days inducer treatment, three age groups", "value": "over 95%"},
      {"measurement": "fraction of maximal intracavernosal pressure remaining after L-NAME", "setting": "Male Fischer 344 rats; very old rats treated with inducers, L-NAME 2 mg/kg, EFS 10 volts", "value": 28, "unit": "%"},
      {"measurement": "fraction of maximal intracavernosal pressure remaining after L-NAME", "setting": "Male Fischer 344 rats; very old rats without inducer treatment (separate study)", "value": 23, "unit": "%"},
      {"measurement": "inhibition at 2000 µM", "setting": "[1]; Rattus norvegicus, 2 mM, RPSMC treated with standard induction mix, read-out: inhibition of nitrite release", "value": "≤ 85", "unit": "%"}
    ]},
    {"molecule": "IL-1β: recombinant human interleukin-1 β", "values": [
      {"measurement": "effectiveness compared with 500 U/ml INF-θ", "setting": "[1]; 5 ng/ml with 10 ug/ml LPS, 48 hr", "value": "slightly more effective"}
    ]},
    {"molecule": "INF-θ: recombinant murine interferon-θ (in vitro); recombinant rat interferon-θ (IFN-γ) in vivo (protein, UniProt P01580 23-155, looked up, rat IFN-gamma used in vivo) Interferon gamma: HGTVIESLESLNNYFNSSGIDVEEKSLFLDIWRNWQKDGDMKILQSQIISFYLRLFEVLKDNQAISNNISVIESHLITTFFSNSKAKKDAFMSIAKFEVNNPQVQRQAFNELIRVVHQLLPESSLRKRKRSRC", "values": [
      {"measurement": "nitrites in culture medium, maximum", "setting": "[1]; 50 to 500 U/ml, absence of LPS, 48 hr incubation", "value": "≤ 45", "unit": "µM"},
      {"measurement": "induction relative to the basal level", "setting": "[1]; [2]", "value": "~20", "unit": "fold"},
      {"measurement": "nitrites in culture medium", "setting": "[1]; [2]", "value": "up to 120 uM"}
    ]}
  ]
}
